One data set concerns the target LXRβ (Homo sapiens, UniProt P55055). In words: GeneBLAzer NR-UAS-bla HEK 293 T assay. The data set is classed as cell-based. The settings on record: antagonistic mode; only at concentrations higher than 5 µM.
The next data set has as its system Hepa 1-6 cells. In words: One- and 3-day cytotoxicity assay. It is filed as cell-based, mouse. The settings on record: Hepa 1-6, one- and 3-day. As to the method:
After the plated had been incubated for 24 or 72 h at 37 °C, the cytotoxicity was determined using a CellTiter-Glo luminescent cell viability assay (Promega). […] The final DMSO concentration was 0.5% for all wells.

The test system of a further data set is CYP3A4. As to the kind of experiment: CYP3A4 protein levels in primary human hepatocytes (western blot). The data set is classed as cell-based. As to the method:
Cells were rinsed once with cold PBS then lysed in RIPA lysis buffer (Thermo Fisher Scientific) containing protease inhibitor (Roche). Mouse liver samples were homogenized in 500 μl of cold RIPA lysis buffer in a Bullet Blender Blue homogenizer (Next Advance, Averill Park, NY). Then, 25 μg of total protein lysates were loaded onto NuPAGE 4%–12% Bis-Tris gels (Invitrogen) with NuPAGE MES SDS running buffer (Invitrogen). The proteins were transferred from the gel to a nitrocellulose membrane by using the iBlot gel-transfer system (Invitrogen). The membrane was then blocked for 1 h with Odyssey Blocking Buffer (LI-COR Biosciences, Lincoln, NE) and probed with mouse monoclonal antibodies against CYP3A4 (K03; stock concentration: 2.5 mg ml^−1, diluted 1:5000)[51], MDR1 (D-11; Cat. No. sc-55510, Santa Cruz Biotechnology, Santa Cruz, CA; stock concentration: 0.2 mg ml^−1, diluted 1:1500), hPXR (H-11; Cat. No. sc-48340, Santa Cruz Biotechnology; stock concentration: 0.2 mg ml^−1, diluted 1:400), mouse Cyp3a (Cat. No. MAB10041, Millipore, Temecula, CA; Lot No. 1957980, diluted 1:1000), or β-actin (Cat. No. A5441, Sigma; Lot No. 043M4840V, diluted 1:5000). […] The relative intensity of each protein band was then determined by normalizing the intensity of each protein band to that of actin. […]
For orientation: Immunoblotting shows a protein as a band on a membrane.

The next data set has as its system CYP3A4 promoter. As to the kind of experiment: hPXR-CYP3A4-luc reporter mice (hydrodynamic injection), bioluminescence imaging. The settings on record: transient transgenic mice, SPA70 150 mg kg−1, RIF 10 mg kg−1. The data set is classed as in vivo, mouse. As to the method:
For the hydrodynamic injections, treatment, and in vivo imaging, in vivo delivery of the CYP3A4-luc reporter gene and the hPXR gene into mouse liver was performed using the hydrodynamic injection method described previously, [53], [54]. Briefly, by a rapid (5–10 s) tail-vein injection, each mouse received 25 μg of linearized CYP3A4-luc plasmid DNA with linearized hPXR plasmid DNA in sterile saline in a volume equal to 10% of its body weight. Imaging for luciferase activity was performed 2–8 weeks after somatic gene transfer (the bioluminescence was stable in the mice during the 2–8 weeks period). Fifteen mice were given i.p. injections of VivoGlo luciferin (Promega) (150 mg kg^−1 of body weight), anesthetized with 2.5% isoflurane, and imaged 10 min later in a Xenogen IVIS 200 system (Xenogen) to obtain a basal image. […] The mice were imaged 10 h after the last treatment in each round. The Living Image 3.2 software (Xenogen) was used to analyze the total photon flux of uniform regions of interest drawn around the liver. The CYP3A4-luc reporter activity (expressed as induction rate) was determined by using the total photon flux from the same mouse before and after treatment: induction rate = total photon flux (after treatment)/total photon flux (before treatment).

Another data set deals with Cyp3a11. In words: Loss of righting reflex (LORR) assay in hPXR-tg mice. It is filed as in vivo, mouse. Particulars: hPXR humanized mice, SPA70 200 mg kg−1 i.p., RIF 10 mg kg−1. As to the method: The LORR assay method has been described previously, by using 2,2,2-tribromoethanol, a substrate of mouse Cyp3a11 which is induced by hPXR. Mice were first injected intraperitoneally with 250 mg kg^−1 of 2,2,2-tribromoethanol, then placed on their backs under a heat lamp as soon as they lost their righting reflex. The LORR duration was defined as the time period from the start of LORR to when mice could right themselves twice within 1 min, after being placed on their backs. For each mouse, a baseline LORR duration was first established before oral administration of vehicle or compounds. […] A paired Student’s t-test was used to compare the LORR duration at baseline and after treatment. A P-value of less than 0.05 was considered to indicate a significant difference between the compared groups.

The target of a further data set is T1, hPXR (Homo sapiens, UniProt O75469).
T1 sequence (O75469 1-434): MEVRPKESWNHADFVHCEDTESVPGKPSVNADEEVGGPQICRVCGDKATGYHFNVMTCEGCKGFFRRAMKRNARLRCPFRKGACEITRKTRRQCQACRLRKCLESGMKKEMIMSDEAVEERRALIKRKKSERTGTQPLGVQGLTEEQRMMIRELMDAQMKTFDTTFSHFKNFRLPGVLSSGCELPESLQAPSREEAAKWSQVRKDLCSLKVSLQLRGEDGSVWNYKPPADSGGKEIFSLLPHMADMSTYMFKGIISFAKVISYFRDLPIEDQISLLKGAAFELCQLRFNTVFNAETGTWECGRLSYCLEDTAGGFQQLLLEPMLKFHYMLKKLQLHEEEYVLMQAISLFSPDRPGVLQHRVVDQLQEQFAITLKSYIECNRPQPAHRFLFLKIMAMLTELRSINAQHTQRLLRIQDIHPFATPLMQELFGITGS
As to the kind of experiment: hPXR transactivation assay using transient transfection in LS180 cells. It is filed as cell-based. More on the design: expressed in transfected cells. Particulars: SPA70 10 μM, SJB7 4 μM. As to the method: The hPXR transactivation assay using transient transfection (agonist and antagonist modes) were performed as described previously. Briefly, LS180 cells were co-transfected with pGL3-CYP3A4-luc (CYP3A4-luciferase reporter) and pRL-TK (as a transfection control), together with pcDNA3, pcDNA3-hPXR, pcDNA3-hPXRM425A, or pcDNA3-hPXRF429A, by using FuGENE 6 (Roche). The pcDNA3-hPXR mutants (pcDNA3-hPXRM425A and pcDNA3-hPXRF429A) were obtained from Codex BioSolutions, Inc. (Gaithersburg, MD). Mutations were verified through nucleotide sequencing, using primers shown in Supplementary Table 3.

Entries after “also recorded” stand apart in the source; their conditions may differ.

Sequence of LXRβ (P55055 222-460 limits assumed): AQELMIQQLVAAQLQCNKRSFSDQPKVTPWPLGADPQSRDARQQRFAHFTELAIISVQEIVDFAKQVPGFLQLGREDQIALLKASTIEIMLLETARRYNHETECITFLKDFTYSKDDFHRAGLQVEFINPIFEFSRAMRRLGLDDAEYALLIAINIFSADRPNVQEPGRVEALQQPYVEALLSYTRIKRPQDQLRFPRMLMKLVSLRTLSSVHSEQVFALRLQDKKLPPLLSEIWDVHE
Experimental for LXRβ: The assays were performed in accordance with the manufacturer’s instructions, with minor modifications as reported previously[48]–[50]. Briefly, positive control (as described for each assay), DMSO, and dilutions of test chemicals either alone (for agonistic assays) or in combination with an approximately EC80 concentration of a specific agonist (for antagonistic assays) were incubated with an optimized number of cells for each assay in wells of black 384-well tissue culture-treated clear-bottom plates with 30 µl of the respective assay medium in a 37 °C cell-culture incubator. A group of wells containing assay medium and DMSO, but no cells, served as a background control. The final DMSO concentration was 0.5% for all wells.

Consider `COc1ccc(OC)c(-n2nnc(S(=O)(=O)c3ccc(C(C)(C)C)cc3)c2C)c1` [SPA70], for which the “Effect on agonistic activity of T0901317 on LXRβ” value on LXRβ is given as “weakly promoted the agonistic effect of T0901317 on LXRβ; also recorded: marginally increased the agonistic activity of T0901317 on LXRβ”. The Cytotoxicity entry with Hepa 1-6 cells is on record as “marginal cytotoxicity”. The “Effect on CYP3A4 induction by SR12813 and T090137” value in the data set on CYP3A4 (2.5 μM SPA70, 0.1 μM SR12813 or 0.03 μM T090137, 48 h) is “able to block the CYP3A4-inducing effect”. In addition, the “Effect on CYP3A4 induction by rifampicin” value with CYP3A4 (2.5 μM SPA70, 1 μM rifampicin, 48 h) was “substantially blocked”. Also, in the data set on CYP3A4 promoter, the “Effect on rifampicin-induced activation of the CYP3A4 promoter” value was “effectively blocked the rifampicin-induced activation of the CYP3A4 promoter”. The “Effect on rifampicin-induced metabolism of 2,2,2-tribromoethanol by Cyp3a11 (LORR)” value in the data set on Cyp3a11 was “effectively blocked”. For the same compound, at hPXR, the “Effect on activation of hPXR by SJB7” value is “effectively block the activation of hPXR”.
